According to patent US11998008B2, “Pesticides and methods of controlling pests” (The State of Israel, Ministry of Agriculture & Rural …, priority 2017, dated 2024):
“Also recorded” adds a separate entry of the source.

Experiments:
[1] = tested on: Meloidogyne javanica second stage juveniles (J2s); assay: Nematocidal activity: viability of J2 nematodes after 2 days exposure to the compound in a sealed box; format: in vivo
Description: In exemplary procedures, the sedentary root-knot nematode from the genus Meloidogyne javanica second stage juveniles (J2s) was propagated on greenhouse-grown nematode-susceptible tomato Lycopersicon esculentum cv. ‘Avigail 870’ (Hazera, Shikmim, Israel), and nematode eggs were bulk-extracted from the roots with 0.05% (v/v) sodium hypochlorite (NaOCl) followed by sucrose flotation and successive sievings through nylon filters of 300, 120, 60, and 30 μm mesh sizes (AD Sinun Technologies, Petach Tikvah, Israel). For hatching J2, extracted eggs were placed on 30-μm sieves (AD Sinun Technologies) in 0.01 M MES (2-(N-morpholino) ethanesulfonic acid hydrate) pH 6.5 buffer under aseptic conditions in darkness for 5 days, and hatching J2s were collected for further experiments.
Seven vials, each containing 300 J2 nematodes with 0.5 mL of 0.01 M 2-(N-morpholino)ethanesulfonic acid (MES) buffer, were exposed to cyclic ketone compounds in order to examine their nematocidal activity and reduction in viability. In addition, a humid environment in a sealed 1 L box was maintained by addition 5 ml of distilled H2O to a 50-mm Petri plate. The box was sealed after compound addition into each 50-mm Petri plate together with 5-250 mg of perlite particles and incubated for 2 days in the dark at 25±1° C. C5 and C6 saturated and α,β-unsaturated cyclic ketones were tested for their nematocidal activity. The J2 nematodes viability was examined following exposure to the cyclic ketone compounds, by a straightforward small-scale nematode extraction method, based on the traditional Baermann funnel method. Briefly, all nematode suspensions were loaded onto 30-μm (AD Sinun Technologies) filters (1.0-1.5 cm height, 1.1-2.0 cm^3 internal area), and the nematodes were washed twice with 300 μL of 0.01 M MES buffer in order to remove any residues. Then, filters holding nematodes were placed into 15 mL Falcon centrifuge tubes, each containing 900 μL of 0.01 M of MES buffer. These filters allow active passage of only living J2s while paralyzed or dead nematodes remain on top of the filter. The whole apparatus including the filter holding the nematodes and the Falcon tubes were placed in the dark for 3 h at 25±1° C. Then, the filters were removed and the viable nematodes, which were able to actively cross the filter toward the 0.01 M of MES buffer, were collected from the Falcon tube and counted using a Nematode Counting Slide (Chalex LLC, Portland, OR, USA) and a SV11 stereomicroscope (Zeiss, Jena, Germany).
Data were analyzed by the JMP 12 software package (SAS Inc., Cary, NC, USA). Mean numbers of viable J2s under various conditions were subjected to one-way analysis of variance (ANOVA), followed by the Tukey-Kramer multiple comparison test, with significance set at P<0.05.

[2] = tested on: A. alternata; assay: Fungicidal activity assay on PDA in sealed Petri dish (growth inhibition and mortality); format: cell-based, Alternaria alternata; conditions: for I - Inhibition class: 2 days; for I - Inhibition, minimal concentration that inhibited the growth: concentration to which the class above belongs
Method: (§1) In exemplary procedures, the fungicidial activity of the compounds listed in Table 2 were examined by activity assays as follow: Petri dishes, 90 mm in diameter, with air volume of 80 mL, contained 10-12 mL of growth medium comprising potato dextrose agar (PDA) (Acumedia, Lansing, Michigan, USA) amended with tetracycline at 12 μg/mL. Each compound was placed on a disconnected cover from an Eppendorf tube that was located in the middle of the Petri dish and a hyphae-containing plug of each test fungus was added to the culture plate. In exemplary procedures, the tested compounds trans-2-heptenal, trans-2-octenal were tested in comparison with octanal, trans-2-octen-1-ol, methyl trans-2-octenoate, trans-3-octen-2-one and 3-pentenenitrile. In addition, cyclic ketones as 2-cyclopenten-1-one, 2-cyclohexen-1-one and α-tetralone were also examined. Then, the culture plate was sealed with parafilm and incubated at room-temperature for 2 days, after which the growth of the test fungi in those dishes was compared with those in the test compound-free control dishes. At the end of the assay, the viability of each test fungus was evaluated by transferring inoculum plugs to fresh PDA plates and observing the growth that developed within the next 2 days. The test fungi used in this study included but were not limited to Alternaria alternata, Botrytis cinerea, Sclerotinia rolfsii, Penicillium digitatum, Fusarium oxysporum f. sp. radicis-cucumerinum and Rhizoctonia solani.

[3] = tested on: B. cinerea; assay: as above; format: cell-based, Botrytis cinerea; conditions: for I - Inhibition class: 2 days; for I - Inhibition, minimal concentration that inhibited the growth: concentration to which the class above belongs
Method: as §1

[4] = tested on: S. rolfsii; assay: as above; format: cell-based, Sclerotinia rolfsii; conditions: S. rolfsii; for I - Inhibition class: 2 days; for M - Mortality, minimal concentration that killed the fungus / MFC: NA + number = still viable in the highest concentration tested (given as >); for I - Inhibition, minimal concentration that inhibited the growth: concentration to which the class above belongs; for MFC: Agroathelia rolfsii, read-out: M - Mortality, minimal concentration that killed the fungus
Method: as §1, with “Each” for “In exemplary procedures, the fungicidial activity of the compounds listed in Table 2 were examined by activity assays as follow: Petri dishes, 90 mm in diameter, with air volume of 80 mL, contained 10-12 mL of growth medium comprising potato dextrose agar (PDA) (Acumedia, Lansing, Michigan, USA) amended with tetracycline at 12 μg/mL. Each”

[5] = tested on: P. digitatum; assay: as above; format: cell-based, Penicillium digitatum; conditions: for I - Inhibition class: 2 days; for I - Inhibition, minimal concentration that inhibited the growth: concentration to which the class above belongs
Method: as §1

[6] = tested on: Meloidogyne javanica second stage juveniles (J2s); assay: Nematocidal activity: viability of J2 nematodes after 2 days exposure to the compound in a sealed box; conditions: in vivo
[7] = tested on: F. oxysporum f. sp. radicis-cucumerium; assay: Fungicidal activity assay on PDA in sealed Petri dish (growth inhibition and mortality); format: cell-based, Fusarium oxysporum f. sp. radicis-cucumerinum; conditions: for MFC: Fusarium oxysporum, read-out: M - Mortality, minimal concentration that killed the fungus; for MFC / M - Mortality, minimal concentration that killed the fungus: NA + number = still viable in the highest concentration tested (given as >); for I - Inhibition class: 2 days; for I - Inhibition, minimal concentration that inhibited the growth: concentration to which the class above belongs
Method: as §1, with “Each” for “In exemplary procedures, the fungicidial activity of the compounds listed in Table 2 were examined by activity assays as follow: Petri dishes, 90 mm in diameter, with air volume of 80 mL, contained 10-12 mL of growth medium comprising potato dextrose agar (PDA) (Acumedia, Lansing, Michigan, USA) amended with tetracycline at 12 μg/mL. Each”

[8] = tested on: R. solani; assay: microbe, parasite or virus in culture; format: cell-based; conditions: R. solani; for MFC: Rhizoctonia solani, read-out: M - Mortality, minimal concentration that killed the fungus; for MFC / M - Mortality, minimal concentration that killed the fungus: NA + number = still viable in the highest concentration tested (given as >); for I - Inhibition class: 2 days; for I - Inhibition, minimal concentration that inhibited the growth: concentration to which the class above belongs
Method: as §1, with “Each” for “In exemplary procedures, the fungicidial activity of the compounds listed in Table 2 were examined by activity assays as follow: Petri dishes, 90 mm in diameter, with air volume of 80 mL, contained 10-12 mL of growth medium comprising potato dextrose agar (PDA) (Acumedia, Lansing, Michigan, USA) amended with tetracycline at 12 μg/mL. Each”

[9] = tested on: test fungi; assay: Fungicidal activity assay on PDA, summaries over the test fungi; format: cell-based; conditions: comparison within the series
Method: as §1

[10] = tested on: Tomato plants; assay: Phytotoxicity on tomato plants in soil, compound on perlite particles; format: in vivo; conditions: one day after treatment
Description: In exemplary procedures, the phytotixicity of trans-2-octenal and 2-cyclopenten-1-one was examined in triplicates for each concentration: 250, 1,000, 4,000, and 20,000 ppm compared to control.

[11] = at the concentration given, 2 days incubation
[12] = NA + number = still viable in the highest concentration tested (given as >)

SMILES	Activity: reduction in J2s viability relative to non exposed control J2s (class) [1, 11]	I - Inhibition class [2]	M - Mortality, minimal concentration that killed the fungus [2, 12]	I - Inhibition, minimal concentration that inhibited the growth [2]	I - Inhibition class [3]	M - Mortality, minimal concentration that killed the fungus [3, 12]	I - Inhibition, minimal concentration that inhibited the growth [3]	I - Inhibition class [4]	M - Mortality, minimal concentration that killed the fungus [4]	I - Inhibition, minimal concentration that inhibited the growth [4]	I - Inhibition class [5]	M - Mortality, minimal concentration that killed the fungus [5, 12]	I - Inhibition, minimal concentration that inhibited the growth [5]	Activity: the most effective concentration [6]	MFC [4]	MFC [7]	MFC [8]	fungicidal activity in words [9]	I - Inhibition class [7]	M - Mortality, minimal concentration that killed the fungus [7]	further results
CC(C)=CCCC(C)=CCCC(C)=CC=O (single isomer, unassigned) [Farnesal mixture of isomers, Farnesal]	N (<50% reduction in viability)	NI (<50% growth inhibition)	> 125 ppm	125 ppm	MI (Medium inhibition - 76-99% of growth inhibition)	> 125 ppm	12.5 ppm	MI (Medium inhibition - 76-99% of growth inhibition)	> 125 ppm	125 ppm	NI (<50% growth inhibition)	> 125 ppm	125 ppm	N 250 ppm							
O=C1C=CCC1 [2-cyclopenten-1-one]															> 25 µg/mL	> 25 µg/mL	> 25 µg/mL	fungicidal activity, to some extent			phytotoxicity ([10]; 250 ppm): No phytotoxicity; phytotoxicity ([10]; 1,000 ppm): phytotoxic; also recorded: Low phytotoxicity; phytotoxicity ([10]; 4,000 ppm): phytotoxic; also recorded: Medium phytotoxicity; phytotoxicity ([10]; 20,000 ppm): phytotoxic; also recorded: Strong phytotoxicity
O=C1CCCCCC1 [Cycloheptanone]															2500 µg/mL	> 250 µg/mL	> 250 µg/mL				nematocidal activity in words ([1]; comparison within the series): nematocidal effects at substantially higher concentrations; MFC ([2]; Alternaria alternata, NA + number = still viable in the highest concentration tested (given as >), read-out: M - Mortality, minimal concentration that killed the fungus): 1250 µg/mL; MFC ([3]; Botrytis cinerea, NA + number = still viable in the highest concentration tested (given as >), read-out: M - Mortality, minimal concentration that killed the fungus): 1250 µg/mL; MFC ([5]; Penicillium digitatum, NA + number = still viable in the highest concentration tested (given as >), read-out: M - Mortality, minimal concentration that killed the fungus): 2500 µg/mL
C/C=C(\C)C=O [Tiglic aldehyde]	M (76-90% reduction in viability)							MI (Medium inhibition - 76-99% of growth inhibition)	> 25 ppm	25 ppm				M 25 ppm					NI (<50% growth inhibition)	> 25 ppm	I - Inhibition, minimal concentration that inhibited the growth [7]: 25 ppm; I - Inhibition class [8]: MI (Medium inhibition - 76-99% of growth inhibition); M - Mortality, minimal concentration that killed the fungus [8]: > 25 ppm; I - Inhibition, minimal concentration that inhibited the growth [8]: 25 ppm
O=C1CCCc2ccccc21 [α-Tetralone]								NI (<50% growth inhibition)	> 25 ppm	25 ppm								further reduced fungicidal activity	NI (<50% growth inhibition)	> 25 ppm	Activity: the most effective concentration ([1]; concentration to which the class of the same cell belongs): 25 ppm; I - Inhibition, minimal concentration that inhibited the growth [7]: 25 ppm; I - Inhibition class [8]: NI (<50% growth inhibition); M - Mortality, minimal concentration that killed the fungus [8]: > 25 ppm; I - Inhibition, minimal concentration that inhibited the growth [8]: 25 ppm
CC(=O)/C=C/C1C(C)=CCCC1(C)C (stereo not drawn) [α-ionone]		LI (Low inhibition - 51-75% of growth inhibition compared to control.)	> 1250 ppm	1250 ppm	LI (Low inhibition - 51-75% of growth inhibition compared to control.)	> 1250 ppm	1250 ppm	LI (Low inhibition - 51-75% of growth inhibition compared to control.)	> 1250 ppm	1250 ppm	NI (<50% growth inhibition)	> 1250 ppm	1250 ppm	N 250 ppm							Activity: reduction in J2s viability relative to non exposed control J2s (class) ([1]; in vivo): N 250 (key: S: >90% reduction in viability; M: 76-90% reduction in viability; L: 51-75% reduction in viability; N: <50% reduction in viability)
